Consider eight compounds from PubChem BioAssay (NCI).

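Cells were grown in 96-well plates and exposed to each compound for 48 hours at five concentrations; endpoints were interpolated linearly between bracketing concentrations, or set to the highest concentration if not reached. The concentration for full growth arrest is given as TGI.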 Where only a bound is given, the exact number is not on record here.

Among the test systems are DU-145 prostate; HCT-15 colon; HOP-62 NSCLC; HOP-92 NSCLC; HS 578T breast; M14 melanoma; MCF7 breast; NCI-H226 lung; NCI-H23 lung; NCI/ADR-RES ovarian; OVCAR-3 ovarian; RPMI-8226 leukemia; SF-539 CNS; SK-MEL-2 melanoma; SK-MEL-28 melanoma; SK-OV-3 ovarian; SR leukemia; UACC-257 melanoma.
Common to all, as to test: growth of human tumour cells (NCI), 48 h

For `COc1ccc2c3c1O[C@H]1C(O)CCC4(O)[C@@H](C2)NCC[C@]314` (stereo partly drawn), the TGI with DU-145 prostate, with HCT-15 colon, in the assay with HOP-62 NSCLC, in the assay with HOP-92 NSCLC, in the assay with HS 578T breast and in the assay with M14 melanoma was more than 100 µM each time. Besides, the TGI in the assay with MCF7 breast, with NCI-H226 lung, with NCI-H23 lung, with NCI/ADR-RES ovarian, in the assay with OVCAR-3 ovarian and in the assay with RPMI-8226 leukemia was more than 100 µM in each case. Moreover, the TGI in the assay with SF-539 CNS, in the assay with SK-MEL-2 melanoma, in the assay with SK-MEL-28 melanoma, in the assay on SK-OV-3 ovarian, in the assay on SR leukemia and in the assay with UACC-257 melanoma was more than 100 µM each time.
As for `COC(=O)C1=C(C)NC(C)=C(C(=O)OC)C1c1ccc(/[N+]([O-])=C/c2ccccc2)cc1`, the TGI in the assay on DU-145 prostate was more than 100 µM; with HCT-15 colon, more than 100 µM; in the assay on HOP-62 NSCLC, more than 100 µM; with HOP-92 NSCLC it was 35.3 µM; with HS 578T breast, more than 100 µM; with M14 melanoma it was 35.7 µM. In addition, the TGI in the assay with MCF7 breast is 30.4 µM; with NCI-H226 lung it was more than 100 µM; in the assay on NCI-H23 lung, more than 100 µM; in the assay on NCI/ADR-RES ovarian, more than 100 µM; in the assay with OVCAR-3 ovarian, 34.4 µM; with RPMI-8226 leukemia it was more than 100 µM. Further, the TGI was more than 100 µM with SF-539 CNS; more than 100 µM in the assay with SK-MEL-2 melanoma; 36.8 µM in the assay with SK-MEL-28 melanoma; more than 100 µM in the assay with SK-OV-3 ovarian; 80 µM in the assay on SR leukemia; more than 100 µM in the assay with UACC-257 melanoma.
As for `C/C(=N\Nc1cc(CN2CCCC2)c(-c2ccc(Cl)cc2)nn1)C(=O)O`, the TGI in the assay on DU-145 prostate, in the assay on HCT-15 colon, in the assay on HOP-62 NSCLC, in the assay with HOP-92 NSCLC, with HS 578T breast and in the assay on M14 melanoma was more than 100 µM in each case. Besides, the TGI in the assay with MCF7 breast, with NCI-H226 lung, in the assay with NCI-H23 lung, in the assay on NCI/ADR-RES ovarian, in the assay with OVCAR-3 ovarian and in the assay on RPMI-8226 leukemia was more than 100 µM in each case. Further, the TGI in the assay with SF-539 CNS, in the assay on SK-MEL-2 melanoma, in the assay on SK-MEL-28 melanoma, with SK-OV-3 ovarian, in the assay with SR leukemia and in the assay with UACC-257 melanoma was more than 100 µM throughout.
Turning to `O=C(NCCCNC(=O)c1ccc2c(O)c(O)ccc2c1)c1ccc2c(O)c(O)ccc2c1`, the TGI was more than 100 µM with DU-145 prostate; more than 72.5 µM in the assay with HCT-15 colon; 48.1 µM in the assay on HOP-62 NSCLC; more than 100 µM in the assay with HOP-92 NSCLC; 56.1 µM in the assay with HS 578T breast; 78.8 µM in the assay on M14 melanoma. For the same compound, the TGI in the assay on MCF7 breast was more than 100 µM; with NCI-H226 lung, more than 100 µM; in the assay on NCI-H23 lung it was 52.8 µM; in the assay on NCI/ADR-RES ovarian, more than 100 µM; in the assay on OVCAR-3 ovarian it was 56.5 µM; with RPMI-8226 leukemia it was more than 100 µM. Besides, the TGI in the assay on SF-539 CNS was more than 100 µM; with SK-MEL-2 melanoma, more than 81.6 µM; in the assay on SK-MEL-28 melanoma, more than 100 µM; in the assay with SK-OV-3 ovarian, more than 100 µM; in the assay with SR leukemia, more than 90.7 µM; with UACC-257 melanoma, 53 µM.
As to `O=C(c1ccccc1)c1c(-c2ccccc2)[nH]n(-c2ccc([N+](=O)[O-])cc2)c(=O)c1=O`, the TGI in the assay with DU-145 prostate is more than 100 µM; in the assay with HCT-15 colon it was more than 100 µM; with HOP-62 NSCLC it was more than 100 µM; in the assay on HOP-92 NSCLC it was 50.9 µM; with HS 578T breast, more than 100 µM; with M14 melanoma, more than 100 µM. Also, the TGI in the assay with MCF7 breast, in the assay with NCI-H226 lung, in the assay on NCI-H23 lung, in the assay with NCI/ADR-RES ovarian, with OVCAR-3 ovarian and in the assay with RPMI-8226 leukemia was more than 100 µM in each case. Moreover, the TGI in the assay with SF-539 CNS is 88 µM; in the assay on SK-MEL-2 melanoma it was 61.5 µM; with SK-MEL-28 melanoma, more than 100 µM; in the assay on SK-OV-3 ovarian, more than 100 µM; in the assay with SR leukemia it was more than 100 µM; with UACC-257 melanoma, more than 100 µM.
As for `N#Cc1sc2nc(/C=C3/C=CC=CC3=O)c(O)n2c1N`, the TGI in the assay with DU-145 prostate, with HCT-15 colon, in the assay on HOP-62 NSCLC, in the assay on HOP-92 NSCLC, in the assay on HS 578T breast and with M14 melanoma was more than 100 µM in each case. The TGI in the assay on MCF7 breast is more than 100 µM; with NCI-H226 lung, more than 100 µM; in the assay on NCI-H23 lung, more than 100 µM; in the assay on NCI/ADR-RES ovarian, more than 100 µM; with OVCAR-3 ovarian, more than 100 µM; with RPMI-8226 leukemia it was 81.2 µM. Moreover, the TGI in the assay with SF-539 CNS was 60 µM; in the assay with SK-MEL-2 melanoma it was more than 100 µM; with SK-MEL-28 melanoma, more than 100 µM; in the assay with SK-OV-3 ovarian, more than 100 µM; in the assay with SR leukemia it was 60.3 µM; in the assay on UACC-257 melanoma it was more than 100 µM.
On to `N#CC(NNC(=O)Cc1ccccc1)c1ccccc1O` (stereo not drawn), for which the TGI in the assay with DU-145 prostate is more than 74.6 µM; in the assay with HCT-15 colon it was more than 100 µM; in the assay with HOP-62 NSCLC, more than 70.6 µM; with HOP-92 NSCLC it was more than 92.1 µM; in the assay on HS 578T breast, more than 100 µM; in the assay with M14 melanoma, 24.2 µM. Moreover, the TGI in the assay on MCF7 breast is more than 89.5 µM; with NCI-H226 lung, 68 µM; with NCI-H23 lung, 76.4 µM; in the assay with NCI/ADR-RES ovarian it was more than 74.6 µM; in the assay with OVCAR-3 ovarian it was more than 43.6 µM; with RPMI-8226 leukemia, more than 100 µM. Further, the TGI was 85.1 µM with SF-539 CNS; more than 100 µM with SK-MEL-2 melanoma; more than 100 µM with SK-MEL-28 melanoma; more than 85.4 µM with SK-OV-3 ovarian; 70.7 µM in the assay with SR leukemia; more than 94.3 µM in the assay on UACC-257 melanoma.
Regarding `COC(CN(C(=O)c1ccccc1)C1CCC2(SCCS2)c2[nH]c3ccccc3c21)OC` (stereo not drawn), the TGI with DU-145 prostate, in the assay with HCT-15 colon, in the assay with HOP-62 NSCLC, in the assay on HOP-92 NSCLC, in the assay on HS 578T breast and in the assay on M14 melanoma was more than 100 µM each time. Moreover, the TGI with MCF7 breast, in the assay on NCI-H226 lung, in the assay with NCI-H23 lung, with NCI/ADR-RES ovarian, with OVCAR-3 ovarian and in the assay with RPMI-8226 leukemia was more than 100 µM in each case. Further, the TGI in the assay with SF-539 CNS was more than 100 µM; with SK-MEL-2 melanoma it was more than 100 µM; with SK-MEL-28 melanoma, more than 100 µM; with SR leukemia, more than 100 µM; in the assay with UACC-257 melanoma, 33.5 µM.
